Measured values as given in patent EP2676962A1, “Derivatives of 1-aminoalkylphosphonate diaryl esters, method of 1-aminoalkylphosphonate diaryl ester derivatives preparation and their application” (priority 2012, dated 2013).
Like-named read-outs stand apart in the source and are kept apart here.

Experiments:
Format in all cases: biochemical
[1] = molecular target: porcine pancreatic elastase (PPE) (Sus scrofa, UniProt P00772); experiment: Inhibitory activity toward porcine pancreatic elastase, fluorogenic substrate, microplate reader
Protocol: (§1) The biological activity of peptidyl derivatives of phosphonic analogs of valine, alanine, phenylalanine, 4-guanidinephenylglycine, leucine, and 1-aminobutyric acid, containing the N-terminal biotin residue were tested for their ability to inhibit proteolytic activity of selected serine proteases, and the control cysteine proteases. All tests were performed using a microplate reader. As enzyme substrates fluorescent peptides were used. The method to measure the activity of the compounds obtained are described below for each of the enzymes tested: human neutrophil elastase (HNE), porcine pancreatic elastase (PPE), subtilisin (Sub), cathepsin G (CatG), proteinase 3 (PR3), chymotrypsin (ChTry) trypsin (Try), papain (Pap) and cathepsin L (CatL). Measurement of the inhibitory activity was performed at different inhibitor concentrations ranging from 12.5 nM to 2000nm.
Measurement of inhibitory activity of compounds toward porcine pancreatic elastase (PPE).
(§2) The inhibitory activity assay is performed at 37°C in 0,01M Tris-HCl, 0,05% Triton X-100 buffer, pH 8,5, within 10 min after initial pre-incubation of the enzyme with inhibitor tested at 37°C for 10 min. The enzyme concentration is 60nM. Substrate used Me-Suc-Ala-Ala-Pro-Val-AMC at 100µM. Measurement is taken at an excitation wavelength of 350nm and 460nm emission.
(§3) The IC50 value is the concentration of inhibitor required to inhibit half of the enzyme activity after 10 minutes incubation.

trypsin (Try) = molecular target: T1, trypsin (Try) (Bos taurus, UniProt P00760); experiment: Inhibitory activity toward trypsin, fluorogenic substrate, microplate reader; settings: 10 min pre-incubation at 37°C, pH 7,5, Cbz-Arg-AFC 100µM; NI = brak inhibicji (no inhibition)
T1 sequence (P00760 24-246): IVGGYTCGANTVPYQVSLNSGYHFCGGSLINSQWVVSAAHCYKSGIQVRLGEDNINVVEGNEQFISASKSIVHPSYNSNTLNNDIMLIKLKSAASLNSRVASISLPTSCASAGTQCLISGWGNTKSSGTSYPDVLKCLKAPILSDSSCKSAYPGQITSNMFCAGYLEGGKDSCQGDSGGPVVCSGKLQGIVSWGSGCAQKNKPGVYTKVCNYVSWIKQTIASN
Protocol: as §1
Measurement of inhibitory activity of compounds toward trypsin (Try).
as §2, with “0,1M HEPES, 0,5M NaCl, 0,03%” for “0,01M Tris-HCl, 0,05%”, “7,5,” for “8,5,”, “25nM.” for “60nM.”, “Cbz-Arg-AFC” for “Me-Suc-Ala-Ala-Pro-Val-AMC”, “400nm” for “350nm”, “505nm” for “460nm”
as §3

cathepsin G (CatG) = molecular target: T2, cathepsin G (CatG) (Homo sapiens, UniProt P08311); experiment: Inhibitory activity toward cathepsin G, fluorogenic substrate, microplate reader; settings: for Cat G Kobs/[I]: 10 min pre-incubation at 37°C, pH 7,5, MCA-Phe-Val-Thr-Gnf-Ser-Trp-Anb-NH2 2.5µM, NI = brak inhibicji (no inhibition)
T2 sequence (P08311 21-244): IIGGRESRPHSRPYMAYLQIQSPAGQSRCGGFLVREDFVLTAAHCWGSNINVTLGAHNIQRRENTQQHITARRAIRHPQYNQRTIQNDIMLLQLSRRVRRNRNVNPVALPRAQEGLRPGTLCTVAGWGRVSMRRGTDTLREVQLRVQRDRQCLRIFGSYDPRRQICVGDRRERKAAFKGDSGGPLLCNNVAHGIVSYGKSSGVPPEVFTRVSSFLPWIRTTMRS
Protocol: as §1
Measurement of inhibitory activity of compounds toward cathepsin G (CatG).
(§4) The inhibitory activity assay is performed at 37°C in 0,1M Tric-HCl, 0,5M NaCl buffer, pH 7,5, within 10 min after initial pre-incubation of the enzyme with inhibitor tested at 37°C for 10 min. The enzyme concentration is 100nM. Substrate used MCA-Phe-Val-Thr-Gnf-Ser-Trp-Anb-NH2 at 2.5µM. Measurement is taken at an excitation wavelength of 325nm and 400nm emission.
as §3

proteinase 3 (PR3) = molecular target: T3, proteinase 3 (PR3) (Homo sapiens, UniProt P24158); experiment: Inhibitory activity toward proteinase 3, fluorogenic substrate, microplate reader
T3 sequence (P24158 28-248): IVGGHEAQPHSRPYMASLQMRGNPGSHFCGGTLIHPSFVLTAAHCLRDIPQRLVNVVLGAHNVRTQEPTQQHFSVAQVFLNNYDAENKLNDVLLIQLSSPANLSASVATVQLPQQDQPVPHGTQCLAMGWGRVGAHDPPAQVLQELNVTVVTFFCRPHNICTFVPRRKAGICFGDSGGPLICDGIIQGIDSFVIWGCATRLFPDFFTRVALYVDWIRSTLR
Protocol: as §1
Measurement of inhibitory activity of compounds toward proteinase 3(PR3).
as §4, with “17nM.” for “100nM.”, “Abz-Tyr-Tyr-Abu-Anb-NH2” for “MCA-Phe-Val-Thr-Gnf-Ser-Trp-Anb-NH2”, “30µM.” for “2.5µM.”
as §3

chymotrypsin (ChTry) = chymotrypsin (ChTry) (Bos taurus, UniProt P00766); experiment: Inhibitory activity toward chymotrypsin, fluorogenic substrate, microplate reader; settings: 10 min pre-incubation at 37°C, pH 7,5, Suc-Ala-Ala-Pro-Phe-AMC 5µM; NI = brak inhibicji (no inhibition)
Protocol: as §1
Measurement of inhibitory activity of compounds toward […] (ChyTry).
as §4, with “HEPES,” for “Tric-HCl,”, “3nM.” for “100nM.”, “Suc-Ala-Ala-Pro-Phe-AMC” for “MCA-Phe-Val-Thr-Gnf-Ser-Trp-Anb-NH2”, “5µM.” for “2.5µM.”, “350nm” for “325nm”, “460nm” for “400nm”
as §3

subtilisin (Sub) = subtilisin (Sub) (Bacillus licheniformis, UniProt P00780); experiment: Inhibitory activity toward subtilisin, fluorogenic substrate, microplate reader
Protocol: as §1
Measurement of inhibitory activity of compounds toward subtilisin (Sub).
as §2, with “0,05M” for “0,01M”, “1M NaCl, 0,01%” for “0,05%”, “7,5,” for “8,5,”, “5nM.” for “60nM.”, “Me-Suc-Ala-Ala-Pro-Phe-AMC” for “Me-Suc-Ala-Ala-Pro-Val-AMC”, “5µM.” for “100µM.”
as §3

[2] = molecular target: T4, human neutrophil elastase (HNE) (Homo sapiens, UniProt P08246); experiment: Inhibitory activity toward human neutrophil elastase, fluorogenic substrate, microplate reader
T4 sequence (P08246 30-267): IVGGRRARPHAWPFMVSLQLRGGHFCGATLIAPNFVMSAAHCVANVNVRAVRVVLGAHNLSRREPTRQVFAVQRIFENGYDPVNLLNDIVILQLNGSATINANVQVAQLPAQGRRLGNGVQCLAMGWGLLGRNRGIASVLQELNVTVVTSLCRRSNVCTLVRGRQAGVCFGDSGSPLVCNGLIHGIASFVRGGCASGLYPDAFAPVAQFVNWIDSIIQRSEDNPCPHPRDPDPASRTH
Protocol: as §1
Measurement of inhibitory activity of compounds toward human neutrophil elastase (HNE).
The inhibitory activity assay is performed at 37°C in 0,01M HEPES, 0,5M NaCl, 0,03% Triton X-100 buffer, pH 7,5, within 10 min after initial pre-incubation of the enzyme with inhibitor tested at 37°C for 10 min. The enzyme concentration is 0,0025U/ml. Substrate used Me-Suc-Ala-Ala-Pro-Val-AFC at 25µM. Measurement is taken at an excitation wavelength of 400nm and 505nm emission.
as §3

[3] = read-out: PPE IC50, 10 min pre-incubation at 37°C, pH 8,5, Me-Suc-Ala-Ala-Pro-Val-AMC 100µM, NI = brak inhibicji (no inhibition)
[4] = read-out: PR3 IC50, 10 min pre-incubation at 37°C, pH 7,5, Abz-Tyr-Tyr-Abu-Anb-NH2 30µM, NI = brak inhibicji (no inhibition)
[5] = 10 min pre-incubation at 37°C, pH 7,5, Me-Suc-Ala-Ala-Pro-Val-AFC 25µM, NI = brak inhibicji (no inhibition)
[6] = 10 min pre-incubation at 37°C, pH 7,5, Me-Suc-Ala-Ala-Pro-Phe-AMC 5µM, NI = brak inhibicji (no inhibition)
[7] = 10 min pre-incubation at 37°C, pH 8,5, Me-Suc-Ala-Ala-Pro-Val-AMC 100µM, NI = brak inhibicji (no inhibition)
[8] = 10 min pre-incubation at 37°C, pH 7,5, Abz-Tyr-Tyr-Abu-Anb-NH2 30µM, NI = brak inhibicji (no inhibition)

subtilisin (Sub), sequence (P00780 106-379): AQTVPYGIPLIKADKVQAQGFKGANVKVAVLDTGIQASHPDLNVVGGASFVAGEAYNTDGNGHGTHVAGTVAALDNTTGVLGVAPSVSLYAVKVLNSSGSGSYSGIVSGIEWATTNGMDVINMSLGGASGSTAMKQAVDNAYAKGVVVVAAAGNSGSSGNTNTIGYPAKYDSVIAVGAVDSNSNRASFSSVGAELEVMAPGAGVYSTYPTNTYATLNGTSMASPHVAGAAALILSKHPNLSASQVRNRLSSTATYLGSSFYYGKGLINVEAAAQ
porcine pancreatic elastase (PPE), sequence (P00772 27-266): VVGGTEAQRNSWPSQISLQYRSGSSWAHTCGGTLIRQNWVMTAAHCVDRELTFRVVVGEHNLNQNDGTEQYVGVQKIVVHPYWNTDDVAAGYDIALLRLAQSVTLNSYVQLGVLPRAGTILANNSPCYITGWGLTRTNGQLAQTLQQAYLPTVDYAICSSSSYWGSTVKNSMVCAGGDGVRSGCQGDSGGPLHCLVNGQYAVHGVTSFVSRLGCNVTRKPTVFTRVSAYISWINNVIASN

SMILES | IC50 [1, 3] [nM] | Try Kobs/[I] (trypsin (Try)) | IC50 (cathepsin G (CatG)) [nM] | Cat G Kobs/[I] (cathepsin G (CatG)) | IC50 (proteinase 3 (PR3); [4]) [nM] | ChyTr Kobs/[I] (chymotrypsin (ChTry)) | IC50 (subtilisin (Sub)) [nM] | IC50 [2] [nM] | HNE Kobs/[I] [2, 5] | Sub Kobs/[I] (subtilisin (Sub); [6]) | IC50 [1] [nM] | PPE Kobs/[I] [1, 7] | IC50 (proteinase 3 (PR3)) [nM] | PR3 Kobs/[I] (proteinase 3 (PR3); [8]) | IC50 ([2]; read-out: HNE IC50, 10 min pre-incubation at 37°C, pH 7,5, Me-Suc-Ala-Ala-Pro-Val-AFC 25µM, NI = brak inhibicji (no inhibition)) [nM] | IC50 (subtilisin (Sub); read-out: Sub IC50, 10 min pre-incubation at 37°C, pH 7,5, Me-Suc-Ala-Ala-Pro-Phe-AMC 5µM, NI = brak inhibicji (no inhibition)) [nM]
CSc1ccc(OP(=O)(Oc2ccc(SC)cc2)C(Cc2ccccc2)NC(=O)C2CCCN2C(=O)C(NC(=O)CCCCC2SCC3NC(=O)NC32)C(C)C)cc1 (stereo not shown) [Compound 6, bis(4-(methylthio)phenyl) (1-(1-(3-methyl-2-(5-(2-oxohexahydro-1H-thieno[3,4-d]imidazol-4-yl)pentanamido)butanoyl)pyrrolidine-2-carboxamido)-2-phenylethyl)phosphonate] | > 5000 | 3.7*10^2 M^-1S^-1 | 218 ± 45 | 5.3*10^3 M^-1S^-1 | > 5000 | 1.0*10^5 M^-1S^-1 | 5.6 ± 0.8 | 1.55 ± 0.05 | 2.5*10^5 M^-1S^-1 |  |  |  |  |  |  | 
CSc1ccc(OP(=O)(Oc2ccc(SC)cc2)C(CC(C)C)NC(=O)C2CCCN2C(=O)CCCCC2SCC3NC(=O)NC32)cc1 (stereo not shown) [Compound 8, bis(4-(methylthio)phenyl) (3-methyl-1-(1-(5-(2-oxohexahydro-1H-thieno[3,4-d]imidazol-4-yl)pentanoyl)pyrrolidine-2-carboxamido)butyl)phosphonate] | > 5000 | 1*10^3 M^-1S^-1 | 1100 ± 139 | 1.0*10^3 M^-1S^-1 | > 5000 | 2.9*10^3 M^-1S^-1 | 11.7 ± 0.61 | 3800 ± 250 | 3.0*10^2 M^-1S^-1 | 9.9*10^4 M^-1S^-1 |  |  |  |  |  | 
COC(=O)c1ccc(OP(=O)(Oc2ccc(C(=O)OC)cc2)C(CC(C)C)NC(=O)C2CCCN2C(=O)C(NC(=O)CCCCC2SCC3NC(=O)NC32)C(C)C)cc1 (stereo not shown) [Compound 9, dimethyl 4,4'-(((3-methyl-1-(1-(3-methyl-2-(5-(2-oxohexahydro-1H-thieno[3,4-d]imidazol-4-yl)pentanamido)butanoyl)pyrrolidine-2-carboxamido)butyl)phosphoryl)bis(oxy))dibenzoate] |  | 4.4*10^4 M^-1S^-1 | 720 ± 60 | 1.6*10^3 M^-1S^-1 |  | 5.2*10^4 M^-1S^-1 | 21.2 ± 1.2 | 5.61 ± 0.02 |  | 5.4*10^4 M^-1S^-1 | > 5000 | <200 M^-1S^-1 | 59.5 ± 8 | 3.9*10^4 M^-1S^-1 |  | 
CSc1ccc(OP(=O)(Oc2ccc(SC)cc2)C(NC(=O)C(NC(=O)C(NC(=O)C(Cc2ccccc2)NC(=O)CCC(=O)NCCCCCNC(=O)CCCCC2SCC3NC(=O)NC32)C(C)C)C(C)O)c2ccc(NC(=N)N)cc2)cc1 (stereo not shown) [Compound 11, bis(4-(methylthio)phenyl) 10-benzyl-1-(4-guanidinophenyl)-4-(1-hydroxyethyl)-7-isopropyl-3,6,9,12,15,23-hexaoxo-27-(2-oxohexahydro-1H-thieno[3,4-d]imidazol-4-yl)-2,5,8,11,16,22-hexaazaheptacosylphosphonate] | > 5000 | 2.7*10^3 M^-1S^-1 | 4740 ± 556 | 2.4*10^2 M^-1S^-1 |  |  | 480 ± 15.5 |  |  | 2.4*10^3 M^-1S^-1 |  |  | 603 ± 49 | 3.8*10^3 M^-1S^-1 | > 5000 | 
CSc1ccc(OP(=O)(Oc2ccc(SC)cc2)C(CC(C)C)NC(=O)C2CCCN2C(=O)C(NC(=O)CCCCC2SCC3NC(=O)NC32)C(C)C)cc1 (stereo not shown) [Compound 12, bis(4-(methylthio)phenyl) (3-methyl-1-(1-(3-methyl-2-(5-(2-oxohexahydro-1H-thieno[3,4-d]imidazol-4-yl)pentanamido)butanoyl)pyrrolidine-2-carboxamido)butyl)phosphonate] |  | 1.9*10^3 M^-1S^-1 | 436 ± 22 | 2.6*10^3 M^-1S^-1 | > 5000 | 4.5*10^4 M^-1S^-1 |  | 66.5 ± 6.5 | 1.7*10^4 M^-1S^-1 |  | 289 ± 10 | 4*10^3 M^-1S^-1 |  |  |  | > 5000
